Measurements from patent publication US20050004134A1, “Thiazole derivative and pharmaceutical use thereof” (priority 2001, published 2005).

Row | melting point | Structure (SMILES)
1 | 144 to 147 °C | CC(C)n1nc(-c2sc(C(=O)NCCc3ccccn3)nc2-c2ccccc2)ccc1=O [Example 234, 5-(1-Isopropyl-6-oxo-1,6-dihydro-3-pyridazinyl)-4-phenyl-N-[2-(2-pyridinyl)ethyl]-1,3-thiazole-2-carboxamide]
2 | 231 to 232.5 °C | CCn1nc(-c2sc(C(N)=O)nc2-c2ccccc2)ccc1=O [Example 160, 5-(1-Ethyl-6-oxo-1,6-dihydro-3-pyridazinyl)-4-phenyl-1,3-thiazole-2-carboxamide]
3 | 196.5 to 197.5 °C | CC(C)n1nc(-c2sc(C(=O)NCCN3CCOCC3)nc2-c2ccccc2)ccc1=O [Example 224, 5-(1-Isopropyl-6-oxo-1,6-dihydro-3-pyridazinyl)-N-[2-(4-morpholinyl)-ethyl]-4-phenyl-1,3-thiazole-2-carboxamide]
4 | 251 to 252 °C | CC(C)n1nc(-c2sc(NC(=O)c3ccccc3F)nc2-c2ccccc2)ccc1=O [Example 37, 2-Fluoro-N-[5-(1-isopropyl-6-oxo-1,6-dihydro-3-pyridazinyl)-4-phenyl-1,3-thiazol-2-yl]benzamide]
5 | 126 to 129 °C | CC(C)n1nc(-c2sc(NC(=O)c3ccccc3)nc2-c2ccccc2)ccc1=O [Example 2, N-[5-(1-isopropyl-6-oxo-1,6-dihydro-3-pyridazinyl)-4-phenyl-1,3-thiazol-2-yl]-benzamide]
6 | 225 to 226 °C | CC(C)n1nc(-c2sc(NC(=O)c3ccc(F)cc3)nc2-c2ccccc2)ccc1=O [Example 48, 4-fluoro-N-[5-(1-isopropyl-6-oxo-1,6-dihydro-3-pyridazinyl)-4-phenyl-1,3-thiazol-2-yl]benzamide]
7 | 189 to 190 °C | CC(C)n1nc(-c2sc(NC(C)(C)C)nc2-c2ccccc2)ccc1=O [Example 61, 6-[2-(tert-Butylamino)-4-phenyl-1,3-thiazol-5-yl]-2-isopropyl-3(2H)-pyridazinone]
8 | 129 to 130.5 °C | CC(C)NC(=O)c1nc(-c2ccccc2F)c(-c2ccc(=O)n(C(C)C)n2)s1 [Example 184, 4-(2-fluorophenyl)-N-isopropyl-5-(1-isopropyl-6-oxo-1,6-dihydro-3-pyridazinyl)-1,3-thiazole-2-carboxamide]
9 | > 250 °C | CC(C)n1nc(-c2sc(NC(=N)N)nc2-c2ccccc2)ccc1=O [Example 63, N-[5-(1-Isopropyl-6-oxo-1,6-dihydro-3-pyridazinyl)-4-phenyl-1,3-thiazol-2-yl]guanidine]
10 | 168 to 169.5 °C | COCCn1nc(-c2sc(C(=O)NCc3ccccn3)nc2-c2ccccc2)ccc1=O [Example 206, 5-[1-(2-Methoxyethyl)-6-oxo-1,6-dihydro-3-pyridazinyl]-4-phenyl-N-(2-pyridinylmethyl)-1,3-thiazole-2-carboxamide]
11 | 181 to 182 °C | CC(C)n1nc(-c2sc(C(=O)N3CCN(Cc4ccccc4)CC3)nc2-c2ccccc2)ccc1=O [Example 229, 6-{2-[(4-Benzyl-1-piperazinyl)carbonyl]-4-phenyl-1,3-thiazol-5-yl}-2-isopropyl-3(2H)-pyridazinone]
12 | 194 to 195 °C | CC(C)n1nc(-c2sc(Nc3ccccn3)nc2-c2ccccc2)ccc1=O [Example 67, 2-Isopropyl-6-[4-phenyl-2-(2-pyridinylamino)-1,3-thiazol-5-yl]-3(2H)-pyridazinone]
13 | 236 to 237.5 °C | CC(=O)Nc1nc(-c2ccc(F)cc2)c(-c2ccc(=O)n(C(C)C)n2)s1 [Example 82, N-[4-(4-fluorophenyl)-5-(1-isopropyl-6-oxo-1,6-dihydro-3-pyridazinyl)-1,3-thiazol-2-yl]acetamide]
14 | 141 to 142 °C | CCCNC(=O)c1nc(-c2ccccc2)c(-c2ccc(=O)n(C(C)C)n2)s1 [Example 173, 5-(1-isopropyl-6-oxo-1,6-dihydro-3-pyridazinyl)-4-phenyl-N-propyl-1,3-thiazole-2-carboxamide]
15 | 190 to 191 °C | CC(C)n1nc(-c2sc(C(=O)NCc3ccccn3)nc2-c2ccccc2F)ccc1=O [Example 207, 4-(2-Fluorophenyl)-5-(1-isopropyl-6-oxo-1,6-dihydro-3-pyridazinyl)-N-(2-pyridinylmethyl)-1,3-thiazole-2-carboxamide]
16 | 218 to 220 °C | CC(C)n1nc(-c2sc(NC(=O)CNCC(O)c3ccccc3)nc2-c2ccccc2)ccc1=O.Cl (stereo not shown)
17 | 182 to 184 °C | CC(C)n1nc(-c2sc(NCc3ccccn3)nc2-c2ccccc2)ccc1=O [Example 20, 2-Isopropyl-6-{4-phenyl-2-[(2-pyridinylmethyl)amino]-1,3-thiazol-5-yl}-3(2H)-pyridazinone]
18 | 198 to 199 °C | Cc1cccc(C(=O)Nc2nc(-c3ccccc3)c(-c3ccc(=O)n(C(C)C)n3)s2)c1 [Example 42, N-[5-(1-Isopropyl-6-oxo-1,6-dihydro-3-pyridazinyl)-4-phenyl-1,3-thiazol-2-yl]-3-methylbenzamide]
19 | 160 to 161 °C | CC(C)n1nc(-c2sc(NC(=O)Cn3ccnc3)nc2-c2ccccc2)ccc1=O [Example 102, 2-(1H-Imidazol-1-yl)-N-[5-(1-isopropyl-6-oxo-1,6-dihydro-3-pyridazinyl)-4-phenyl-1,3-thiazol-2-yl]acetamide]

Row | melting point | Structure (SMILES)
20 | 198 to 199.5 °C | COCCn1nc(-c2sc(C(N)=O)nc2-c2ccccc2)ccc1=O [Example 168, 5-[1-(2-Methoxyethyl)-6-oxo-1,6-dihydro-3-pyridazinyl]-4-phenyl-1,3-thiazole-2-carboxamide]
21 | 158 to 160 °C | CCN(CC)CCNCc1ccc(C(=O)Nc2nc(-c3ccccc3)c(-c3ccc(=O)n(C(C)C)n3)s2)cc1 [Example 142, 4-({[2-(Diethylamino)ethyl]amino}methyl)-N-[5-(1-isopropyl-6-oxo-1,6-dihydro-3-pyridazinyl)-4-phenyl-1,3-thiazol-2-yl]benzamide]
22 | 141 to 144 °C | CC(C)n1nc(-c2sc(C(=O)N(C)C)nc2-c2ccccc2)ccc1=O [Example 213, 5-(1-isopropyl-6-oxo-1,6-dihydro-3-pyridazinyl)-N,N-dimethyl-4-phenyl-1,3-thiazole-2-carboxamide]
23 | 131 to 133 °C | CC(C)n1nc(-c2sc(NC(=O)c3ccc(CN(C)CCN(C)C)cc3)nc2-c2ccccc2)ccc1=O [Example 137, 4-{[[2-(Dimethylamino)ethyl] (methyl)amino]methyl}-N-[5-(1-isopropyl-6-oxo-1,6-dihydro-3-pyridazinyl)-4-phenyl-1,3-thiazol-2-yl]benzamide]
24 | 155 to 156.5 °C | CC(C)n1nc(-c2sc(C(=O)N3CCN(C)CC3)nc2-c2ccccc2)ccc1=O [Example 228, 2-Isopropyl-6-{2-[(4-methyl-1-piperazinyl)carbonyl]-4-phenyl-1,3-thiazol-5-yl)-3(2H)-pyridazinone]
25 | 169 to 170.5 °C | CC(C)n1nc(-c2sc(C(=O)NN(C)C)nc2-c2ccc(F)cc2)ccc1=O [Example 239, 4-(4-Fluorophenyl)-5-(1-isopropyl-6-oxo-1,6-dihydro-3-pyridazinyl)-N′,N′-dimethyl-1,3-thiazole-2-carbohydrazide]
26 | 157 to 158 °C | CC(C)n1nc(-c2sc(C(=O)NC3CC3)nc2-c2ccc(F)cc2)ccc1=O [Example 198, N-cyclopropyl-4-(4-fluorophenyl)-5-(1-isopropyl-6-oxo-1,6-dihydro-3-pyridazinyl)-1,3-thiazole-2-carboxamide]
27 | 198 to 199.5 °C | C=CCn1nc(-c2sc(C(N)=O)nc2-c2ccccc2)ccc1=O [Example 162, 5-(1-Allyl-6-oxo-1,6-dihydro-3-pyridazinyl)-4-phenyl-1,3-thiazole-2-carboxamide]
28 | 147.5 to 148.5 °C | CCCCNC(=O)c1nc(-c2ccccc2)c(-c2ccc(=O)n(C(C)C)n2)s1 [Example 215, N-butyl-5-(1-isopropyl-6-oxo-1,6-dihydro-3-pyridazinyl)-4-phenyl-1,3-thiazole-2-carboxamide]
29 | 248 to 249 °C | CC(C)n1nc(-c2sc(NC(=O)c3c(Cl)cccc3Cl)nc2-c2ccccc2)ccc1=O [Example 49, 2,6-Dichloro-N-[5-(1-isopropyl-6-oxo-1,6-dihydro-3-pyridazinyl)-4-phenyl-1,3-thiazol-2-yl]benzamide]
30 | 172 to 172.5 °C | COCCn1nc(-c2sc(C(=O)NC(C)C)nc2-c2ccccc2)ccc1=O [Example 183, N-isopropyl-5-[1-(2-methoxyethyl)-6-oxo-1,6-dihydro-3-pyridazinyl]-4-phenyl-1,3-thiazole-2-carboxamide]
31 | > 250 °C | CC(C)n1nc(-c2sc(NC(=O)CNCCN3CCCCC3)nc2-c2ccccc2)ccc1=O.Cl.Cl
32 | 127 to 129 °C | Br.CC(C)n1nc(-c2sc(Nc3ccccc3)nc2-c2ccccc2)ccc1=O
33 | 207 to 208 °C | CC(C)n1nc(-c2sc(NC(=O)c3cc(C(F)(F)F)cc(C(F)(F)F)c3)nc2-c2ccccc2)ccc1=O [Example 44, N-[5-(1-Isopropyl-6-oxo-1,6-dihydro-3-pyridazinyl)-4-phenyl-1,3-thiazol-2-yl]-3,5-bis(trifluoromethyl)benzamide]
34 | 163.5 to 165 °C | CC(C)NC(=O)c1nc(-c2ccccc2)c(-c2ccc(=O)n(Cc3ccccc3)n2)s1 [Example 182, 5-(1-benzyl-6-oxo-1,6-dihydro-3-pyridazinyl)-N-isopropyl-4-phenyl-1,3-thiazole-2-carboxamide]
35 | 255.5 to 257 °C | CC(C)n1nc(-c2sc(N)nc2-c2ccc(F)cc2)ccc1=O [Example 77, 6-[2-amino-4-(4-fluorophenyl)-1,3-thiazol-5-yl]-2-isopropyl-3(2H)-pyridazinone]
36 | 144 to 145 °C | CCn1nc(-c2sc(C(=O)NC3CC3)nc2-c2ccccc2)ccc1=O [Example 190, N-cyclopropyl-5-(1-ethyl-6-oxo-1,6-dihydro-3-pyridazinyl)-4-phenyl-1,3-thiazole-2-carboxamide]
37 | 142 to 144 °C | CC(C)n1nc(-c2sc(NC(=O)CNCCO)nc2-c2ccccc2)ccc1=O [Example 117, 2-[(2-Hydroxyethyl)amino]-N-[5-(1-isopropyl-6-oxo-1,6-dihydro-3-pyridazinyl)-4-phenyl-1,3-thiazol-2-yl]acetamide]
